ChEMBL document CHEMBL1129901, “Amide bond surrogates: A study in thiophenesulfonamide based endothelin receptor antagonists” (Bioorg Med Chem Lett, 1997)

Assays:
[1] = target: T1, Endothelin receptor type B (Homo sapiens, UniProt P24530); assay: Inhibition of human Endothelin B receptor using I-ET-1 as radioligand in a competitive radioligand assay
T1 sequence (P24530 whole entry): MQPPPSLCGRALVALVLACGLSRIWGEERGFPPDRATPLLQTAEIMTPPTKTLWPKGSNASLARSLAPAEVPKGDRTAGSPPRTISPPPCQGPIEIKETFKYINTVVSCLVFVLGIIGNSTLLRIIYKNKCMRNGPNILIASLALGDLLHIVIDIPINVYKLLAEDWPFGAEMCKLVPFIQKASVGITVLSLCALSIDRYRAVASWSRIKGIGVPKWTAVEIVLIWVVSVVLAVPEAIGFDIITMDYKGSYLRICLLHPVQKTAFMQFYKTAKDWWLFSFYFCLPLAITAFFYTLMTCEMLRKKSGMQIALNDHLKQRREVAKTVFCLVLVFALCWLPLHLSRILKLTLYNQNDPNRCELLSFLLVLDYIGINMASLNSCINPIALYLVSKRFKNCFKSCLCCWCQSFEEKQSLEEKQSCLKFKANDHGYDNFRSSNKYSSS

Endothelin-1 receptor [2] = target: T2, Endothelin-1 receptor (Homo sapiens, UniProt P25101); assay: Inhibitory of human Endothelin A receptor by using I-ET-1 as radioligand in a competitive radioligand assay
T2 sequence (P25101 whole entry): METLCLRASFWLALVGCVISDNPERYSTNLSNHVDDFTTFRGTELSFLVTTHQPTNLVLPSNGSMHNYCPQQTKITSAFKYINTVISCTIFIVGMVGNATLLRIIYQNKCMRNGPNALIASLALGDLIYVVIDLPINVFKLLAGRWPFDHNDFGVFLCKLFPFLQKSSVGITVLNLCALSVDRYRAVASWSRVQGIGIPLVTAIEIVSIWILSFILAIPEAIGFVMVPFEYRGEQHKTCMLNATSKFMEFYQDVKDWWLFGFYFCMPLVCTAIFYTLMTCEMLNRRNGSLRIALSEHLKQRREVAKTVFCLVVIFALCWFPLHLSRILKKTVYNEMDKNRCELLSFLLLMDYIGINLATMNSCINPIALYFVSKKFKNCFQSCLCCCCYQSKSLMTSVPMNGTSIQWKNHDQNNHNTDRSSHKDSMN

[3] = target: T1, Endothelin receptor type B; assay: Tested for the inhibitory activity of cloned human ETB receptor by using I-ET-1 as radioligand in a competitive radioligand assay
Endothelin-1 receptor [4] = target: T2, Endothelin-1 receptor; assay: Tested for the inhibitory activity of cloned human ETA receptor by using I-ET-1 as radioligand in a competitive radioligand assay

SMILES	IC50 [1] [µM]	IC50 (Endothelin-1 receptor [2]) [µM]	IC50 [3] [µM]	IC50 (Endothelin-1 receptor [4]) [µM]
Cc1cc(C)c(CCc2sccc2S(=O)(=O)Nc2onc(C)c2Br)c(C)c1	2.09	0.046	–	–
Cc1cc(C)c(/C=C/c2ccsc2S(=O)(=O)Nc2onc(C)c2Br)c(C)c1	1.72	0.053	–	–
Cc1ccc(/C=C/c2sccc2S(=O)(=O)Nc2onc(C)c2Br)c(C)c1	2.97	0.166	–	–
Cc1ccc(CCc2ccsc2S(=O)(=O)Nc2onc(C)c2Br)c(C)c1	–	0.102	–	–
Cc1cc(C)c(/C=C/c2sccc2S(=O)(=O)Nc2onc(C)c2Br)c(C)c1	2	0.044	–	–
Cc1cc(C)c(CCc2ccsc2S(=O)(=O)Nc2onc(C)c2Br)c(C)c1	1.39	0.058	–	–
Cc1noc(NS(=O)(=O)c2ccsc2CCc2ccc3c(c2)OCO3)c1Br	9.24	0.205	–	–
Cc1ccc(CCc2sccc2S(=O)(=O)Nc2onc(C)c2Br)cc1	11.7	–	–	–
Cc1noc(NS(=O)(=O)c2sccc2/C=C/c2ccc3c(c2)OCO3)c1Br	9.95	0.218	–	–
Cc1ccc(/C=C/c2sccc2S(=O)(=O)Nc2onc(C)c2Br)cc1	4.13	0.231	–	–
Cc1noc(NS(=O)(=O)c2sccc2/C=C/c2cc3c(cc2COC2CCOCC2)OCO3)c1Br	4.13	0.073	–	–
Cc1cc2c(cc1/C=C/c1ccsc1S(=O)(=O)Nc1onc(C)c1Br)OCO2	–	–	5.37	0.072
Cc1ccc(/C=C/c2ccsc2S(=O)(=O)Nc2onc(C)c2Br)cc1	6.63	–	–	–
Cc1noc(NS(=O)(=O)c2sccc2CCc2ccc3c(c2)OCO3)c1Br	17.9	0.237	–	–
Cc1cc(C)c(NC(=O)c2sccc2S(=O)(=O)Nc2onc(C)c2Cl)c(C)c1	–	0.63	–	–
Cc1cc2c(cc1CCc1ccsc1S(=O)(=O)Nc1onc(C)c1Br)OCO2	12.4	0.091	–	–
Cc1noc(NS(=O)(=O)c2sccc2/C=C/c2cc3c(cc2CO)OCO3)c1Br	3.24	0.079	–	–
Cc1noc(NS(=O)(=O)c2ccsc2/C=C/c2ccc3c(c2)OCO3)c1Br	5.25	0.141	–	–
Cc1cc2c(cc1CCc1sccc1S(=O)(=O)Nc1onc(C)c1Br)OCO2	8.9	0.062	–	–
Cc1cc2c(cc1/C=C/c1sccc1S(=O)(=O)Nc1onc(C)c1Br)OCO2	3.28	0.081	–	–
Cc1ccc(/C=C/c2ccsc2S(=O)(=O)Nc2onc(C)c2Br)c(C)c1	2.97	0.18	–	–
